In US4457919A, “Method of imparting immunomodulating, antiviral or antitumor activity” (Newport Pharmaceutical International, Inc., priority 1982, dated 1984):
Where two headings read alike, the source gives them in different places.

What was measured:
[1] = system: human peripheral blood lymphocytes; assay: PHA mitogen-induced lymphocyte proliferation using human peripheral blood lymphocytes (HPBL); format: cell-based; settings: for Cpm Incorp. +PHA: with PHA; for Cpm Incorp. +PHA / Cpm Incorp. -PHA / S.I. / fold induction at 0.036 µM / fold induction at 0.36 µM / fold induction at 3.6 µM: NPT 15392 values means of three experiments; for Cpm Incorp. -PHA: without PHA; for S.I.: NPT 15458 p ≤ 0.05; for fold induction at 0.036 µM / fold induction at 0.36 µM / fold induction at 3.6 µM: Homo sapiens, Lymphocyte, read-out: D/C (S.I. drug / control); for Immunomodulating (in vitro) lymphocyte proliferation (in words): PHA, HPBL; for Immunomodulating (in vitro) Lymph. Prolif., change: Table 11 summary
Experimental: 2. Mitogen induced lymphocyte proliferation using human peripheral blood lymphocytes (HPBL) (in vitro).
1. Twenty-two and a half grams of Ficoll 400 (Pharmacia, M.W. .perspectiveto.400,000) are dissolved in 200 ml of distilled H2 O. When most of the material is in solution, the volume is then adjusted to 250 ml with distilled H2 O.
2. Thirty-four grams of Hypaque (sodium diatrizoate, Sterling Organics, M.W. .perspectiveto.636) are dissolved in 100 ml distilled H2 O.
3. Solutions are then sterile filtered thorugh a 0.45μ millipore filter and stored in sterile containers at 4° C. away from light.
4. Working solutions are prepared by mixing 10 ml Hypaque solution with 24 ml Ficoll solution. The mixture is warmed to 25° C. with constant stirring.
1. Human blood samples are obtained by veinipuncture into heparinized 20 ml-vacutainer tubes. Fifteen to twenty ml of the undiluted blood is gently layered over an equal volume of Ficoll-Hypaque solution in sterile 50 ml polycarbonate centrifuge tubes using aseptic techniques.
2. Prepared samples are centrifuged at 25° C., 400×g for 30 mins. The fuzzy white band at the interface is aseptically aspirated into a 50 ml sterile centrifuge tube with 10-20 ml RPMI-1640. The cells are washed once at 25° C. 400×g for 10 mins. at 25° C.
3. Pelleted PBL's are resuspended in 1 ml RPMI for every 8 ml whole blood originally used and counted with a Coulter counter. Concentration is adjusted with RPMI-1640 supplemented with glutamine and antibiotics. The cells are held at room temperatue until used.
1. Lipopolysaccharide B or Phytohemagglutinin P powder is weighed and dissolved in RPMI-1640 at a concentration of 1000 μg/ml (1 mg/ml) and filter sterilized through a 0.45μ millipore filter.
2. Solutions are aliquotted (1 ml/tube) asceptically into labelled sterile cryotubes and frozen. Samples are not refrozen after partial use, but may be stored for a day or two at 4° C. Lyophilized powder is kept refrigerated at 4° C.
1. PBL's are prepared as in SOP #I-004 in serum-free RPMI-1640 supplemented with glutamine and antibiotic-antimycotic solution (GIBCO). One tenth ml per well is added to each well of 96-well microtest culture plates (CoStar Plastics) with 8-channel automatic micropipettors (Flow Labs.) fitted with sterile tips.
2. Mitogen solutions are thawed rapidly and diluted to 4 times the desired concentration with RPMI-1640.
3. Test compounds are prepared for use as per SOP #C-002, using RPMI-1640 as diluent, and diluted to 4 times the final desired concentration.
4. Fifty μl of each dilution of mitogen and/or test compound is added to 6 replicate cultures. Plain RPMI-1640 is used in the same amounts in control cultures for a total volume of 0.2 ml/well.
5. Cultures are incubated at 37° C. in a humidified 95% air, 5% CO2 atmosphere (pH .perspectiveto.6.0- 7.0) for 48 hours. The cells are then labelled with 0.5μCi/well ^3 H-TdR (Thymidine) for an additional 18 hours. the cells are harvested with a multiple automatic sample harvester (M.A.S.H.) machine. Nonadherent cells are aspirated onto glass fiber filter strips with 0.9% saline solution (10 well flushes) and the cells lysed with distilled water (20 well flushes). The strips are thoroughly air dried, residual cell deposits cut from the strips and each sample placed in 1 dram glass scintillation vials. Scintillation fluid concentrate (Scintiprep 1, Fisher Chemicals) is diluted 1:50 with scintillation grade toluene (Packard) and 1 ml added to each vial. Samples are evaluated by liquid scintillation spectroscopy and the data expressed as the means counts per minute per test group.

[2] = system: mouse spleen cells; assay: PHA mitogen-induced lymphocyte proliferation using murine spleen cells (in vitro); format: cell-based; settings: 10 ng/ml
Excerpt: 1. Mitogen induced lymphocyte proliferation using murine spleen cells (in vitro).

[3] = system: Influenza virus (A sub-type)
[4] = Chemical stability at varying pH, conversion to NPT 15392 (HPLC); format: physicochemical; settings: for degraded at 3.5 h, 360 µM: 3.5 hours incubation at 37° C., 0.36 μm/ml
Experimental: Compound (conc.) % of NPT 15392*
*3.5 hours incubation at 37° C., determined using HPLC

[5] = Formation of NPT 15392 on incubation with liver homogenate (HPLC); format: in vitro ADME; settings: for % of NPT 15392: 0 hrs.
Excerpt: | ^a Determined using HPLC

[6] = system: HPBL (active E-rosettes); assay: Enhancement of active E-rosette formation in HPBL (in vitro); format: cell-based, human; settings: for Immunomodulating (in vitro) Rosette, change: Table 11 summary; for Immunomodulating (in vitro) rosette formation (in words): active rosettes, HPBL
Experimental: 3. Enhancement of active rosette formation (in vitro).
3. As can be noted from Table 7, both NPT 15457 and NPT 15458 are effective in modulating active rosette formation in HPBL. […] In Experiment #2, placebo-treated controls have abnormally high values for active rosettes.
1. Ten to 40 ml of whole blood is drawn from healthy volunteers in heparinized tubes.
2. Lymphocytes are separated from the above blood using Ficoll-hypaque separation techniques.
3. Various concentration of test compound are prepared in RPMI-1640.
4. The concentration of lymphocytes are adjusted to 2×10^6 /ml of RPMI-1640.
5. Lymphocytes are incubated with test compound for 90 minutes at 37° C.
6. Sheep Red Blood Cells (SRBC.s) (one to two weeks old) are washed 3 times with PBS and diluted to a final concentration of 0.5% inj RPMI-1640.
7. Reaction tubes are set up containing the following:
8. The above reactants are centrifuged at 200×g for 5 minutes at room temperature.
9. The sediment is then gently resuspended and a […] sample placed in a hemocytometer.
10. The number of rosettes are then counted using a microscope with any lymphocyte having 3 or more attached red cells being counted as a rosette.

[7] = Blood levels after i.p. administration to mice; format: in vivo; settings: Table 11 summary
Excerpt: This clearly establishes the fact that NPT 15458 and NPT 15457 can produce NPT 15392 in vivo and further at least one of these derivatives gives much higher blood levels allowing for greater activity.

[8] = Experiment #1, 3.6 n moles/ml, placebo 9.23 ± 2.9, NPT 15457 and NPT 15458 p ≤ 0.05 versus placebo
[9] = Experiment #2, 0.36 n moles/ml, placebo 34.2 ± 6.6, NPT 15392 and NPT 15458 p ≤ 0.05 versus placebo

CCCCCC[C@H]([C@H](C)O)n1cnc2c(=O)[nH]cnc21 (relative stereo) [NPT 15392, erythro-9-(2-hydroxy-3-nonyl)-hypoxanthine, reference compound]
Cpm Incorp. +PHA ([1]; 0.036 n moles/ml): 59,167 Cpm | Cpm Incorp. -PHA ([1]; 0.036 n moles/ml): 297 Cpm | S.I. ([1]; 0.036 n moles/ml): 199 | Cpm Incorp. +PHA ([1]; 0.36 n moles/ml): 69,057 Cpm | Cpm Incorp. -PHA ([1]; 0.36 n moles/ml): 577 Cpm | S.I. ([1]; 0.36 n moles/ml): 120 | Cpm Incorp. +PHA ([1]; 3.6 n moles/ml): 67,328 Cpm | Cpm Incorp. -PHA ([1]; 3.6 n moles/ml): 381 Cpm | S.I. ([1]; 3.6 n moles/ml): 176 | fold induction at 0.036 µM ([1]; 0.036 n moles/ml): 1.27 | fold induction at 0.36 µM ([1]; 0.36 n moles/ml): 0.76 | fold induction at 3.6 µM ([1]; 3.6 n moles/ml): 1.13 | Immunomodulating (in vitro) lymphocyte proliferation (in words) [1]: Yes | Immunomodulating (in vitro) Lymph. Prolif., change [1]: 12-27% | S.I. (stimulation index) [2]: 588 | Cpm Incorp. +PHA ([2]; with PHA): 68,804 Cpm | Cpm Incorp. -PHA ([2]; without PHA): 117 Cpm | fold induction at 0.01 µg/mL ([2]; Mus musculus, Lymphocyte, read-out: D/C (S.I. drug / control)): 1.25 | % Inhibition of Influenza Virus Growth ([3]; 3.6 nmoles/ml): 30% | % Inhibition of Influenza Virus Growth ([3]; 10.8 nmoles/ml): 42% | % Inhibition of Influenza Virus Growth ([3]; 36 nmoles/ml): 73% | % Inhibition of Influenza Virus Growth ([3]; .36 nmoles/ml): 20% | Antiviral activity in vitro (in words) ([3]; in vitro): Yes | degraded at 3.5 h, 360 µM ([4]; pH 1.0): 100% | degraded at 3.5 h, 360 µM ([4]; pH 7.0): 100% | degraded at 3.5 h, 360 µM ([4]; pH 9.5): 100% | % of NPT 15392 [5]: 100% | metabolised at 0.5 h [5]: 100% | % Active E-Rosettes (mean ± S.E.) [6, 8]: 16.2 ± 1.0% | % Active E-Rosettes (mean ± S.E.) [6, 9]: 15.4 ± 2.9% | Immunomodulating (in vitro) Rosette, change [6]: +78% | Immunomodulating (in vitro) rosette formation (in words) [6]: able to decrease the high levels of normal values and Yes

CCCCCC[C@H]([C@H](C)OC(=O)CCC(=O)O)n1cnc2c(=O)[nH]cnc21 (relative stereo) [NPT 15457, Erythro-9-(2-Succinoxy-3-Nonyl) Hypoxanthine]
Cpm Incorp. +PHA ([1]; 0.036 n moles/ml): 59,569 Cpm | Cpm Incorp. -PHA ([1]; 0.036 n moles/ml): 240 Cpm | S.I. ([1]; 0.036 n moles/ml): 250 | Cpm Incorp. +PHA ([1]; 0.36 n moles/ml): 59,689 Cpm | Cpm Incorp. -PHA ([1]; 0.36 n moles/ml): 228 Cpm | S.I. ([1]; 0.36 n moles/ml): 261 | Cpm Incorp. +PHA ([1]; 3.6 n moles/ml): 52,149 Cpm | Cpm Incorp. -PHA ([1]; 3.6 n moles/ml): 232 Cpm | S.I. ([1]; 3.6 n moles/ml): 224 | fold induction at 0.036 µM ([1]; 0.036 n moles/ml): 1.28 | fold induction at 0.36 µM ([1]; 0.36 n moles/ml): 1.33 | fold induction at 3.6 µM ([1]; 3.6 n moles/ml): 1.14 | Immunomodulating (in vitro) lymphocyte proliferation (in words) [1]: effectve in augmenting PHA induced lymphocyte proliferation and Yes | Immunomodulating (in vitro) Lymph. Prolif., change [1]: 14-28% | % Inhibition of Influenza Virus Growth ([3]; 3.6 nmoles/ml): 0% | % Inhibition of Influenza Virus Growth ([3]; 10.8 nmoles/ml): 18% | % Inhibition of Influenza Virus Growth ([3]; 36 nmoles/ml): 13% | % Inhibition of Influenza Virus Growth ([3]; .36 nmoles/ml): 18% | Chemical stability (in words) ([4]; 37° C., neutral pH): have stability | degraded at 3.5 h, 360 µM ([4]; pH 1.0): 2% | Chemical conversion to NPT 15392 (in words) ([4]; pH 7.0): No | degraded at 3.5 h, 360 µM ([4]; pH 7.0): 0% | Chemical conversion to NPT 15392 (in words) ([4]; pH 9.5): basic hydrolysis at pH 9.5 can convert and Yes | degraded at 3.5 h, 360 µM ([4]; pH 9.5): 8% | Convertible to NPT 15392, Biological: Mouse [7]: 25 | % of NPT 15392 [5]: 0% | metabolised at 0.5 h [5]: 14% | % Active E-Rosettes (mean ± S.E.) [6, 8]: 24.8 ± 6% | % Active E-Rosettes (mean ± S.E.) [6, 9]: 33.6 ± 2.4% | Immunomodulating (in vitro) Rosette, change [6]: +166% | Immunomodulating (in vitro) rosette formation (in words) [6]: as active as NPT 15392 in restoring the depressed immunity to normal levels and Yes
